In patent US20230323279A1, “MUTANT ALGAE, METHOD OF PREPARATION AND APPLICATION THEREOF” (Reliance Industries Limited, priority 2022, published 2023):

Assays:
Format in all cases: cell-based, Picochlorum
[1] = tested on: mutant algae (NCAR-1 and NCAR-2); test: Growth of algae culture (OD at 750 nm); settings: for growth of mutant algae as compared to wild type of the algae: about 2 ppm and about 5 ppm, FIGS. 7-9
From the text: (§1) FIG. 4 A) illustrates a plot describing comparative growth of wild type of the algae and mutant algae (NCAR-1 and NCAR-2) at different concentrations of Niclosamide; and B) depicts an image of cultures showing no growth of wild type algae (WT) and growth of mutant algae (NCAR-1 and NCAR-2) at 10 ppm of Niclosamide, respectively.

[2] = tested on: mutant algae (NCAR-1 and NCAR-2); test: Volumetric productivity (AFDW mg/L/day); settings: about 2 ppm and about 5 ppm; for volumetric productivity of mutant algae as compared to wild type of the algae: FIGS. 10-12
From the text: The term ‘productivity’ as used herein refers to amount of product the algae can produce under defined conditions. Productivity can be measured in grams of dry weight of algae. Alternatively, productivity can be measured in terms of the rate of production of a desirable product or product(s) such as lipid, protein, carbohydrate and/or any other biomolecule produced by the algae. The term ‘volumetric productivity’ refers to increase in biomass weight of algae/L/day.
Thus, clearly establishing that the mutant algae is resistant to salicylanilide based drug, such as Niclosamide as compared to wild type of the algae.

wild type algae (WT) = test: Total intracellular ATP, bioluminescence (luciferase) assay; settings: about 12 hours; for ATP conc. / bioluminescence reading, Average / bioluminescence reading, replicate 1 / bioluminescence reading, replicate 2: 1 ppm drug; for ATP depletion / lower ATP levels: about 1 ppm drug
Protocol: (§2) Total intracellular ATP levels in wild type algae and the mutant algae were measured using molecular probes bioluminescence assay kit. The assay is based on luciferase’s requirement for ATP in producing light (emission maximum of about 560 nm at pH 7.8) from the reaction
(§3) Niclosamide was added to mid log cells (OD750 at about 0.3) of both wild type algae and mutant algae and samples (OD = 10^8 cells) were collected after about 12 hours for ATP measurement. About 1 ppm of Oligomycin A (inhibitor of ATP synthase) was used as positive control to inhibit ATP synthesis. intracellular ATP concentration in mutant algae and wild type of the algae in presence of Niclosamide was described in Table 3.

WT cells = test: Killing of WT cells on EMS exposure (mutagenesis); settings: 0.6 M, about 1 hours, about 1 × 10^8 /ml cells
Protocol: About 1 × 10^8 /ml WT cells were treated with 0.6 M EMS for about 1 hours. […] The alive cells were allowed to recover in dark overnight and then in low light for about a week. Upon recovering the mutant algae population was exposed to about 0.5 ppm of Niclosamide and enriched in presence of Niclosamide for several generations. As the growth rate in the presence of Niclosamide increased, the selection pressure was increased to about 1 ppm and then to about 2 ppm of Niclosamide, respectively. The mutant pool was grown in presence of about 2 ppm Niclosamide (for about 300 generations, about 1 year) till the growth rates became constant. At this stage, FACS sorting of the Niclosamide resistant mutant pool was performed to get individual Niclosamide resistant mutant algae. About 100 individual mutants were isolated and were further checked for growth in the presence of about 2 ppm Niclosamide. The list was narrowed down to about 10 stable mutants after about 2 rounds of growth screening. Finally, after about 10 rounds of repeated growth screening in the presence of about 2 ppm Niclosamide, stable mutant algae (NCAR-1 & NCAR-2) were selected, based on the stable drug resistant phenotype and consistent growth & productivity.

[3] = tested on: wild type of the algae (WT); test: Growth of algae culture (OD at 750 nm)
From the text: FIG. 1 A) illustrates a plot describing no growth of wild type of the algae (WT) in presence of Niclosamide (OD at 750 nm); and B) depicts an image of cultures showing no growth of wild type algae in presence of Niclosamide.
as §1

mutant algae NCAR-2 = test: Total intracellular ATP, bioluminescence (luciferase) assay
Protocol: as §2, §3

mutant algae NCAR-1 = test: as above
Protocol: as §2, §3

[4] = tested on: mutant algae (NCAR-1 and NCAR-2); test: Photosynthetic efficiency/health; settings: about 1 ppm, about 2 ppm and about 5 ppm, FIG. 6
From the text: FIG. 6 illustrate plots describing photosynthetic efficiency/health of- A) wild type of the algae (WT); B) mutant algae (NCAR-1); and C) mutant algae (NCAR-2) at different concentrations of Niclosamide (last day is 7th Day).
The improved photosynthetic efficiency of the mutant algae explicitly implies resistance of the mutant algae to salicylanilide based drug, such as Niclosamide and that the wild type of the algae is not resistant to the salicylanilide based drug.

[5] = NCAR-2, 1 ppm drug, about 12 hours
[6] = NCAR-1, 1 ppm drug, about 12 hours

SMILES	growth of mutant algae as compared to wild type of the algae [1]	volumetric productivity of mutant algae as compared to wild type of the algae [2]	ATP conc. (wild type algae (WT))	bioluminescence reading, Average (wild type algae (WT))	bioluminescence reading, replicate 1 (wild type algae (WT))	bioluminescence reading, replicate 2 (wild type algae (WT))	ATP depletion / lower ATP levels (wild type algae (WT))	also measured
Cc1cc(C(C#N)c2ccc(Cl)cc2)c(Cl)cc1NC(=O)c1cc(I)cc(I)c1O (stereo not shown) [Closantel, closantel]	improved growth	improved volumetric productivity						
CC[C@H]1/C=C/C=C/C[C@@H](C)[C@H](O)[C@@](C)(O)C(=O)[C@@H](C)[C@H](O)[C@@H](C)C(=O)[C@@H](C)[C@H](O)[C@@H](C)/C=C/C(=O)O[C@@H]2[C@H](C)[C@H](CC1)O[C@]1(CC[C@H](C)[C@H](C[C@@H](C)O)O1)[C@H]2C [Oligomycin, Oligomycin A]			178.49 nM	1081.5	1181	982	about 40%	
CCOS(C)(=O)=O [EMS, ethyl methanesulfonate]								killing of the WT cells (WT cells): about 50%
O=C(Nc1ccc(Oc2ccc(Cl)cc2)c(Cl)c1)c1cc(I)cc(I)c1O [Rafoxanide, rafoxanide]	improved growth	improved volumetric productivity						
O=C(Nc1cc(Cl)cc(Cl)c1O)c1c(O)c(Cl)cc(Cl)c1Cl [Oxyclozanide, oxyclozanide]	improved growth	improved volumetric productivity						
O=C(Nc1ccc([N+](=O)[O-])cc1Cl)c1cc(Cl)ccc1O [Niclosamide, niclosamide]	improved growth	improved volumetric productivity	~ 28.80 nM	174.5	204	145	about 90%	growth of wild type of the algae ([3]; 10 ppm, FIG. 4B): no growth; growth of wild type of the algae (OD at 750 nm) ([3]; in presence of drug, FIG. 1): no growth; ATP conc. (mutant algae NCAR-2; [5]): 138.55 nM; bioluminescence reading, Average (mutant algae NCAR-2; [5]): 839.5; bioluminescence reading, replicate 1 (mutant algae NCAR-2; [5]): 890; bioluminescence reading, replicate 2 (mutant algae NCAR-2; [5]): 789; ATP depletion (mutant algae NCAR-2; NCAR-2, after about 12 hours of drug addition): about 50%; ATP conc. (mutant algae NCAR-1; [6]): 125.68 nM; bioluminescence reading, Average (mutant algae NCAR-1; [6]): 761.5; bioluminescence reading, replicate 1 (mutant algae NCAR-1; [6]): 835; bioluminescence reading, replicate 2 (mutant algae NCAR-1; [6]): 688; ATP depletion (mutant algae NCAR-1; NCAR-1, after about 12 hours of drug addition): about 50%; photosynthetic efficiency/health of mutant algae as compared to wild type of the algae [4]: improved photosynthetic efficiency/health; growth of mutant algae ([1]; 10 ppm, FIG. 4B): evident growth; volumetric productivity of mutant algae ([2]; about 1 ppm, FIG. 5): equal to or greater than the volumetric productivity of the wild type of the algae in absence of Niclosamide
